Test results: patent publication US9359338B2, “Cyclopropanecarboxamido-substitute aromatic compounds as anti-tumor agents” (Crown Bioscience Inc. (Taiwan), priority 2012, dated 2016)

System: PLC-PRF-5 cells
Assay: Inhibition of proliferation of PLC-PRF-5 cells (ATPlite)
Format: cell-based
Conditions: Homo sapiens, PLC-PRF-5, PLC-PRF-5 cells; read-out: PLC-PRF-5 cell proliferation IC50
From the text: Inhibitory Activity of Compounds to the Proliferation of PLC-PRF-5 Cells
• [experimental Method]: Use PerKinElmer's ATPlite™ Luminescence ATP Detection Assay System to evaluate the inhibitory activity of compounds to the proliferation of PLC-PRF-5 cells. • [Instruments]: ENVISION plate reader (PerKinElmer) and centrifuge (Thermo Scientific, Sorvall ST16R) • [material]: PLC-PRF-5 cells (ATCC), 96-well plate (Nunc, #165305), DMEM medium (Gibco, #11965-092), PBS (Invitrogen, #10010023), fetal bovine serum (Gibco, #16000044), DMSO (Sigma, #D2650), ATPlite™ Luminescence ATP Detection Assay System (PerkinElmer, #6016949), purified water (Millipore, type: Milli-Q). • [Protocol]: Grow PLC-PRF-5 cells in DMEM supplemented with 10% FBS. When the cells reach 80% confluency, collect cells by trypsinization and centrifugation at 800 rpm for 3 min. Resuspend cells with appropriate volume of medium and count cell numbers. Adjust cell concentration to 50000 cells/mL, and split 160 μL cell suspension per well into 96-well plates. Transfer the plates into cell culture incubator (37° C., 5% CO2) and incubate cells for 2 hrs. Prepare compound serial dilutions in culture medium with total 8 compound concentrations at 3-fold serial dilutions (the final top concentration starts from 30 μM). Dispense 40 μL of each test compound dilution into corresponding wells with DMSO at 0.3% final concentration. Continue incubating cells in cell culture incubator for additional 96 hrs at 37° C., 5% CO2. Discard culture medium, and wash cells once with PBS. Add 50 μL cell lysis buffer per well and shake plates for 5 min at room temperature to ensure complete lysis of cells. Then add 50 μL of substrate solution and shake plates for 1 min at room temperature. Allow the plates to incubate at room temperature for 5 min, followed by recording the luminescence signals using Envision, and subsequent data analysis. • [Samples]: Compounds in the examples and Sorafenib (positive control) • [Data analysis]: Use CBIS data analysis software to calculate IC50 values

SMILES | IC50
Cc1ccc(NC(=O)Nc2ccc(Oc3ccnc(NC(=O)C4CC4)c3)cc2)cc1C(F)(F)F [Exe. 140] | 0.23 µM
CC(F)(F)c1cc(NC(=O)Nc2ccc(Oc3ccnc(NC(=O)C4CC4)c3)cc2)ccc1F [Exe. 150] | 0.737 µM
Cc1ccc(NC(=O)Nc2ccc(Oc3ccnc(NC(=O)C4CC4)c3)c(F)c2)cc1C(F)(F)F [Exe. 154] | 0.13 µM
O=C(Nc1cc(F)cc(C(F)(F)F)c1)Nc1ccc(Oc2ccnc(NC(=O)C3CC3)c2)c(F)c1 [Exe. 155] | 0.571 µM
O=C(Nc1ccnc(C(F)(F)F)c1)Nc1ccc(Oc2ccnc(NC(=O)C3CC3)c2)c(F)c1 [Exe. 158] | 1.04 µM
O=C(Nc1ccc(Oc2ccnc(NC(=O)C3CC3)c2)c(F)c1)Nc1ccc(C(F)(F)F)cc1Cl [Exe. 160] | 4.1 µM
O=C(Nc1cncc(C(F)(F)F)c1)Nc1ccc(Oc2ccnc(NC(=O)C3CC3)c2)c(F)c1 [Exe. 169] | 0.34 µM
O=C(Nc1cc(N2CCOCC2=O)cc(C(F)(F)F)c1)Nc1ccc(Oc2ccnc(NC(=O)C3CC3)c2)c(F)c1 [Exe. 171] | 1.98 µM
CN1CCN(c2cc(C(F)(F)F)cc(NC(=O)Nc3ccc(Oc4ccnc(NC(=O)C5CC5)c4)c(F)c3)n2)CC1 [Exe. 172] | 0.197 µM
CN1CCC(Nc2cc(C(F)(F)F)cc(NC(=O)Nc3ccc(Oc4ccnc(NC(=O)C5CC5)c4)c(F)c3)n2)CC1 [Exe. 173] | 0.254 µM
O=C(Nc1ccc(Oc2ccnc(NC(=O)C3CC3)c2)c(F)c1)Nc1cc(C(F)(F)F)cc(N2CCOCC2)n1 [Exe. 174] | 0.24 µM
O=C(Nc1ccc(Oc2ccnc(NC(=O)C3CC3)c2)c(F)c1)Nc1cc(OC(F)(F)F)ccc1F [Exe. 176] | 0.06 µM
O=C(Nc1ccc(Oc2ccnc(NC(=O)C3CC3)c2)c(F)c1)Nc1ccc(F)c(OC(F)(F)F)c1 [Exe. 177] | 0.69 µM
CC(F)(F)c1cc(F)cc(NC(=O)Nc2ccc(Oc3ccnc(NC(=O)C4CC4)c3)c(F)c2)c1 [Exe. 179] | 0.206 µM
CC(F)(F)c1cccc(NC(=O)Nc2ccc(Oc3ccnc(NC(=O)C4CC4)c3)c(F)c2)c1 [Exe. 180] | 0.152 µM
O=C(Nc1ccc(Oc2ccnc(NC(=O)C3CC3)c2)c(F)c1)Nc1ccc(C(F)(F)F)c(Cl)c1 [Exe. 185] | 1.48 µM
Cc1cc(Oc2ccnc(NC(=O)C3CC3)c2)ccc1NC(=O)Nc1cc(F)cc(C(F)(F)F)c1 [Exe. 192] | 2.91 µM

Molecular target: KDR kinase (790-1356 AA) (Homo sapiens (Human), UniProt P35968)
Assay: Inhibitory activity at KDR kinase (Lance Ultra Ulight-TK assay)
Format: biochemical
Conditions: not given
Procedure: Inhibitory Activity of Compounds at KDR Kinase
• [Experimental method]: Use Lance@Ultra Ulight™-TK assay kit from PerKinElmer to evaluate the inhibitory activity of compounds at KDR kinase. • [Instrument]: PerKinElmer's ENVISION plate reader • [Materials]: Optiplate-384 well plate (PerKinElmer), kinase buffer (50 mM Hepes pH7.5, 0.25 mM EGTA, 2 mM DTT, 0.01% Tween 20, 10 mM Mg^2+, 0.5 mM Mn^2+), KDR kinase (790-1356 AA, Crown Bioscience), KDR kinase substrate (PerKinElmer catalogue # TRF0127-M), Lance@Eu-W1024-anti-phosphotyrosine (PT66) (PerKinElmer, catalogue #AD0068), ATP (Invitrogen), DMSO (Sigma, catalogue #34869), purified water (Millipore, type: Milli-Q). • [Study conditions]: Mix KDR (final concentration: 20 nM) and compound (final DMSO: 0.5%), pre-incubate for 20 min at 30° C.; then add ATP (final concentration: 90 μM) and the substrate (final concentration […]). React for 2 hrs at 30° C. After the reaction, add antibody and reaction for 60 min at 30° C. Read the plate (615 nm, 665 nm), calculate the ratio of the value at 665 nm vs 615 nm and analyze the data. • [Samples]: Compounds in the examples and Sorafenib (positive control) • [Data Analysis]: Use CBIS data analysis software to calculate IC50 values

Chain of KDR kinase (790-1356 AA) (P35968 790-1356): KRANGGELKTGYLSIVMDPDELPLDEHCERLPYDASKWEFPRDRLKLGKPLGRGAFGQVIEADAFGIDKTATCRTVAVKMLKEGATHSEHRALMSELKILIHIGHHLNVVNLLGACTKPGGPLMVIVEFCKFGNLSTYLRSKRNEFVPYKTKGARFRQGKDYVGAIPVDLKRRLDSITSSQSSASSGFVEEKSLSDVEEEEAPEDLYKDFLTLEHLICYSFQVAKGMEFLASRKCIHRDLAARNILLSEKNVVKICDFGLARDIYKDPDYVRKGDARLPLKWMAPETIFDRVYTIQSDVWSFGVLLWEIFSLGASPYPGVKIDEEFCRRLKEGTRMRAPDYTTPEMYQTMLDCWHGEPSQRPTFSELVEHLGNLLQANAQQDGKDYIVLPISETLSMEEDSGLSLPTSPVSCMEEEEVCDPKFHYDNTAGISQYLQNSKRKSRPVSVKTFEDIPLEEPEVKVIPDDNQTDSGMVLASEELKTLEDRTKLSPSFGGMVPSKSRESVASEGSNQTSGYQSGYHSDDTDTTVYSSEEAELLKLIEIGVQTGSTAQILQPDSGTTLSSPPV

IC50 | SMILES
0.01 µM | Cc1ccc(NC(=O)Nc2ccc(Oc3ccnc(NC(=O)C4CC4)c3)cc2)cc1C(F)(F)F [Exe. 140]
0.0115 µM | CC(F)(F)c1cc(NC(=O)Nc2ccc(Oc3ccnc(NC(=O)C4CC4)c3)cc2)ccc1F [Exe. 150]
0.0113 µM | Cc1ccc(NC(=O)Nc2ccc(Oc3ccnc(NC(=O)C4CC4)c3)c(F)c2)cc1C(F)(F)F [Exe. 154]
0.0121 µM | O=C(Nc1cc(F)cc(C(F)(F)F)c1)Nc1ccc(Oc2ccnc(NC(=O)C3CC3)c2)c(F)c1 [Exe. 155]
0.0083 µM | O=C(Nc1ccnc(C(F)(F)F)c1)Nc1ccc(Oc2ccnc(NC(=O)C3CC3)c2)c(F)c1 [Exe. 158]
0.0078 µM | O=C(Nc1ccc(Oc2ccnc(NC(=O)C3CC3)c2)c(F)c1)Nc1ccc(C(F)(F)F)cc1Cl [Exe. 160]
0.0146 µM | O=C(Nc1cncc(C(F)(F)F)c1)Nc1ccc(Oc2ccnc(NC(=O)C3CC3)c2)c(F)c1 [Exe. 169]
0.0124 µM | O=C(Nc1cc(N2CCOCC2=O)cc(C(F)(F)F)c1)Nc1ccc(Oc2ccnc(NC(=O)C3CC3)c2)c(F)c1 [Exe. 171]
0.0148 µM | CN1CCN(c2cc(C(F)(F)F)cc(NC(=O)Nc3ccc(Oc4ccnc(NC(=O)C5CC5)c4)c(F)c3)n2)CC1 [Exe. 172]
0.0225 µM | CN1CCC(Nc2cc(C(F)(F)F)cc(NC(=O)Nc3ccc(Oc4ccnc(NC(=O)C5CC5)c4)c(F)c3)n2)CC1 [Exe. 173]
0.0054 µM | O=C(Nc1ccc(Oc2ccnc(NC(=O)C3CC3)c2)c(F)c1)Nc1cc(C(F)(F)F)cc(N2CCOCC2)n1 [Exe. 174]
0.0057 µM | O=C(Nc1ccc(Oc2ccnc(NC(=O)C3CC3)c2)c(F)c1)Nc1cc(OC(F)(F)F)ccc1F [Exe. 176]
0.0095 µM | O=C(Nc1ccc(Oc2ccnc(NC(=O)C3CC3)c2)c(F)c1)Nc1ccc(F)c(OC(F)(F)F)c1 [Exe. 177]
0.0105 µM | CC(F)(F)c1cc(F)cc(NC(=O)Nc2ccc(Oc3ccnc(NC(=O)C4CC4)c3)c(F)c2)c1 [Exe. 179]
0.0098 µM | CC(F)(F)c1cccc(NC(=O)Nc2ccc(Oc3ccnc(NC(=O)C4CC4)c3)c(F)c2)c1 [Exe. 180]
0.0123 µM | O=C(Nc1ccc(Oc2ccnc(NC(=O)C3CC3)c2)c(F)c1)Nc1ccc(C(F)(F)F)c(Cl)c1 [Exe. 185]
0.0175 µM | Cc1cc(Oc2ccnc(NC(=O)C3CC3)c2)ccc1NC(=O)Nc1cc(F)cc(C(F)(F)F)c1 [Exe. 192]

System: pERK in MDA-MB-231 cells
Assay: Inhibitory activity at pERK (In Cell Western, MDA-MB-231 cells)
Format: cell-based
Conditions: Homo sapiens, MDA-MB-231, MDA-MB-231 cells; read-out: MDA-MB-231 pERK IC50
Procedure: Inhibitory Activity of Compounds at pERK
When the cells reach 80% confluency, collect cells by trypsinization and centrifugation at 800 rpm for 3 minutes. Resuspend cells with appropriate volume of medium and count cell numbers. Adjust cell concentration to 70000 cells/mL, and split 100 μL cell suspension per well into 96-well plates. Transfer the plates into cell culture incubator (37° C., 5% CO2) and incubate cells overnight. Discard the medium, wash with PBS once, Prepare compound serial dilutions in culture medium with total 8 compound concentrations at 3-fold serial dilutions (the final top concentration starts from 30 μM). Dispense 75 μL DMEM medium (with 0.1% BSA) and 25 μL of each test compound dilution into corresponding wells with DMSO at 0.3% final concentration. Continue incubating cells in cell culture incubator for additional 2 hrs at 37° C., 5% CO2. Discard culture medium, and wash cells once with PBS. Add 100 μL of 4% formaldehyde solution to each well and fix for 20 min. Discard the formaldehyde, then add 100 μL ice-cold 100% methanol at 4° C. for 20 min. Discard methanol, wash with PBS three times. Add to each well 100 μL of 2% BSA solution, seal for 30 min at room temperature. Discard the BSA solution, add to each well 50 μL of the 1st antibody solution (prepared with 2% BSA, 1:250 dilution), incubate at 4° C. overnight. Discard the 1^St antibody solution, wash with PBS four times. Add to each well […] the 2nd antibody solution (prepared with 1% BSA, 1:1000 dilution), incubate at room temperature for 1 hr. Discard the 2nd antibody solution, wash with PBS four times, add to each well 100 μL PI solution (1.5 μM), incubate at room temperature for 30 min. Use Acumen (TPP) to measure the fluorescence. • [Samples]: Compounds in the examples and sorafenib (positive control) • [Data Analysis]: Use CBIS data analysis software to calculate IC50 values

IC50 | SMILES
0.0106 µM | Cc1ccc(NC(=O)Nc2ccc(Oc3ccnc(NC(=O)C4CC4)c3)cc2)cc1C(F)(F)F [Exe. 140]
0.0204 µM | CC(F)(F)c1cc(NC(=O)Nc2ccc(Oc3ccnc(NC(=O)C4CC4)c3)cc2)ccc1F [Exe. 150]
0.0149 µM | Cc1ccc(NC(=O)Nc2ccc(Oc3ccnc(NC(=O)C4CC4)c3)c(F)c2)cc1C(F)(F)F [Exe. 154]
0.195 µM | O=C(Nc1cc(F)cc(C(F)(F)F)c1)Nc1ccc(Oc2ccnc(NC(=O)C3CC3)c2)c(F)c1 [Exe. 155]
0.0819 µM | O=C(Nc1ccnc(C(F)(F)F)c1)Nc1ccc(Oc2ccnc(NC(=O)C3CC3)c2)c(F)c1 [Exe. 158]
0.186 µM | O=C(Nc1ccc(Oc2ccnc(NC(=O)C3CC3)c2)c(F)c1)Nc1ccc(C(F)(F)F)cc1Cl [Exe. 160]
0.043 µM | O=C(Nc1cncc(C(F)(F)F)c1)Nc1ccc(Oc2ccnc(NC(=O)C3CC3)c2)c(F)c1 [Exe. 169]
0.0302 µM | O=C(Nc1cc(N2CCOCC2=O)cc(C(F)(F)F)c1)Nc1ccc(Oc2ccnc(NC(=O)C3CC3)c2)c(F)c1 [Exe. 171]
0.074 µM | CN1CCN(c2cc(C(F)(F)F)cc(NC(=O)Nc3ccc(Oc4ccnc(NC(=O)C5CC5)c4)c(F)c3)n2)CC1 [Exe. 172]
0.08 µM | CN1CCC(Nc2cc(C(F)(F)F)cc(NC(=O)Nc3ccc(Oc4ccnc(NC(=O)C5CC5)c4)c(F)c3)n2)CC1 [Exe. 173]
0.0606 µM | O=C(Nc1ccc(Oc2ccnc(NC(=O)C3CC3)c2)c(F)c1)Nc1cc(C(F)(F)F)cc(N2CCOCC2)n1 [Exe. 174]
0.04 µM | O=C(Nc1ccc(Oc2ccnc(NC(=O)C3CC3)c2)c(F)c1)Nc1cc(OC(F)(F)F)ccc1F [Exe. 176]
0.037 µM | O=C(Nc1ccc(Oc2ccnc(NC(=O)C3CC3)c2)c(F)c1)Nc1ccc(F)c(OC(F)(F)F)c1 [Exe. 177]
0.0515 µM | CC(F)(F)c1cc(F)cc(NC(=O)Nc2ccc(Oc3ccnc(NC(=O)C4CC4)c3)c(F)c2)c1 [Exe. 179]
0.0317 µM | CC(F)(F)c1cccc(NC(=O)Nc2ccc(Oc3ccnc(NC(=O)C4CC4)c3)c(F)c2)c1 [Exe. 180]
0.0464 µM | O=C(Nc1ccc(Oc2ccnc(NC(=O)C3CC3)c2)c(F)c1)Nc1ccc(C(F)(F)F)c(Cl)c1 [Exe. 185]
0.02 µM | Cc1cc(Oc2ccnc(NC(=O)C3CC3)c2)ccc1NC(=O)Nc1cc(F)cc(C(F)(F)F)c1 [Exe. 192]
